Measurements: patent US6972319B1, “Pituitary adenylate cyclase activating peptide (PACAP)receptor 3 (R3) agonists and their pharmacological methods of use” (priority 1999, dated 2005)
Like-named read-outs stand apart in the source and are kept apart here. No end group written: not given here.

Key:
[1] = target: T1, PACAP-R3 (Homo sapiens, UniProt P41587); experiment: Cyclic AMP SPA on CHO cells expressing PACAP R3; assay type: cell-based; set-up: expressed in transfected cells; host or cells: CHO cells (Geneticin selection); conditions: for R3 Selectivity: ratio of EC50 at R2 versus EC50 at R3
T1 sequence (P41587 24-438): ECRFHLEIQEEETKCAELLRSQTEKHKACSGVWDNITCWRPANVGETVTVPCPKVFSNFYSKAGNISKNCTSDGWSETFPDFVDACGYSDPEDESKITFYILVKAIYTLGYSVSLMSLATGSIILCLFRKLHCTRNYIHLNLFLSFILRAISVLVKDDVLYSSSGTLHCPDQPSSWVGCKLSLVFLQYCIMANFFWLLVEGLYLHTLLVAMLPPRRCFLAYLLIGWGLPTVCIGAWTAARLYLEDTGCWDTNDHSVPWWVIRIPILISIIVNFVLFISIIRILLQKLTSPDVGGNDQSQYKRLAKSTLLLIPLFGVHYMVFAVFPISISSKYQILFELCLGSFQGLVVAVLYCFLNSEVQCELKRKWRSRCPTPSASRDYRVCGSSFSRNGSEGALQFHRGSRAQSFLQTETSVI
Procedure, shortened: (§1)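 Receptor-transfected CHO cells are stimulated with peptide for 15 min at 37 C in the presence of phosphodiesterase inhibitor IBMX (100 uM), bacitracin and soybean trypsin inhibitor; cAMP is then read by scintillation proximity.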

[2] = Peptide-induced elevation of plasma insulin after IVGTT in rats; assay type: in vivo; conditions: one minute after IVGTT (0.4 g/kg glucose), Wistar rats
Description: Wistar rats are fasted overnight (17 hrs) and then anesthetized with pentobarbital (0.1 ml/100 g BW). Glucose (0.4 g/kg dissolved in 1% human albumin-saline)+/−peptide (dissolved in 1% human albumin-saline) is injected intravenously into the tail vein. The rats are eye-bled 1 minute after the injection and 50-100 ul of the plasma are assayed for insulin level with the Linco RIA kit (Linco Research, Inc., St. Charles, Mo.).
In accordance with the protocol of example 2 above, overnight fasted Wistar rats were anesthetized with pentobarital; i.v. injected with glucose±peptide and eye bled after 1 minute. N=12 rats/group. […] The peptide or vehicle was given i.v. followed by a glucose load given i.p. in accordance with example 3. The plasma glucose was followed over the time period indicated.
Plasma insulin: Data are expressed as % of plasma insulin one minute after IVGTT (0.4 g/kg glucose) with either saline, 0.1 nmol/kg P51, P55, P60, P66 or 1 nmole/kg of the other peptides in Wistar rats. Blood was drawn from the eye and insulin was measured with the rat insulin RIA kit (Linco Research, Inc., St. Charles, Mo.).

[3] = target: T2, PACAP-R2 (Homo sapiens, UniProt P32241); experiment: Cyclic AMP SPA on CHO cells transfected with PACAP-R2; assay type: cell-based; conditions: concentration at which 50% of maximum PACAP27 activity is achieved, NA = no detectable activities
T2 construct: expressed in transfected cells; host or cells: CHO cells
T2 sequence (P32241 31-457): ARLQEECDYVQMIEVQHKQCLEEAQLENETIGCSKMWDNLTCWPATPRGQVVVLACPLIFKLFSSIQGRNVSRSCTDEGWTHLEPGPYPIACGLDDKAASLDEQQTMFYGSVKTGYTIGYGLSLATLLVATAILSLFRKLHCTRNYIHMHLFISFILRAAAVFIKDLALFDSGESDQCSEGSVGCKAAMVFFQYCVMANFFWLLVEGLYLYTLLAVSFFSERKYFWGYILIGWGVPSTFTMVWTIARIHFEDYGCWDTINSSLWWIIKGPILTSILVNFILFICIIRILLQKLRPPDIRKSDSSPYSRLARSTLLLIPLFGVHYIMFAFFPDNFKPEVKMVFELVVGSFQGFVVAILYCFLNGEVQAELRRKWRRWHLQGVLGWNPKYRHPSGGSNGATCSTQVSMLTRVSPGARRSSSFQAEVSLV
Procedure, shortened: as §1

[4] = Intraperitoneal glucose tolerance test (IPGTT), plasma glucose in rats; assay type: in vivo, Wistar rats; conditions: for elevation of plasma glucose 30 minutes after IPGTT: 1 nmole/kg s.c., rats, FIG. 7; for Plasma Glucose (% of Basal) s.c.: plasma glucose after IPGTT (1 g/kg glucose), 1 nmol/kg peptide s.c.; for Plasma Glucose (% of Basal) s.c. / Plasma Glucose (% of Basal) i.v.: % of vehicle; for Plasma Glucose (% of Basal) i.v.: plasma glucose area under the curve after IPGTT (1 g/kg glucose), 1 nmol/kg peptide i.v.
Description: Wistar rats are fasted overnight and then anesthetized with pentobarbital. The rats were eye-bled (zero time) and the peptide (in 1% human albumin) was injected into the tail vein. Five minutes later, 1 g/kg of glucose (in saline) was injected intraperitoneally, and the rats were eye-bled after 15, 30 and 60 minutes. Plasma glucose levels were determined using the Technicon Axon autoanalyzer, Bayer Diagnosics division of Bayer Corporation, Tarrytown N.Y., operated using Method No. SM4-2143F90“Glucose”.
Wistar rats were fasted overnight and then anesthetized with Pentobarbital. The rats were eye-bled (zero time) and the peptide (in 1% human albumin) was injected subcutaneously. Five minutes later, 1 g/kg of glucose (in saline) was injected intraperitoneally, and the rats were eye-bled after 30 minutes.
Plasma glucose: Data are expressed as % of vehicle of plasma glucose area under the curve after IPGTT (1 g/kg glucose) after treatment with 1 nmol/kg dose of the peptide. […] The present inventors have shown for the first time that this is because the effects of R2 and R3 on glucose tend to cancel each other out. […] Therefore, R3-selectivity appears to be a desirable attribute for medicaments which are to be employed in achieving blood glucose reduction, for treatment of type 2 diabetes.

[5] = system: rat islets; experiment: Insulin secretion by isolated rat islets; assay type: cell-based, Sprague-Dawley rats; conditions: for Islet Insulin Release (% of Basal): 10 nM peptide, 2 hrs, 8 mM glucose, % of [insulin] in 8 mM glucose alone
Description: Sprague Dawley rats (275-320 g) were used as the source of donor islets. Briefly, the pancreas was filled with 10 ml of cold reconstituted Liberase RI (Boehringer Manheim), harvested and incubated with additional 5 ml enzyme solution in water bath for 30 minutes. Tissue suspension was washed twice with cold 10% FBS/Hanks buffer (Gibco), resuspended in 8 ml 25% ficoll (Sigma) and then layered with 5 ml each of 23%, 20% and 11% ficoll. The islets in the 20% layer after centrifugation were removed, washed twice with cold 10% FBS/Hank buffer and resuspended in 10% FBS/RPMI 1640 media (Sigma).
Islet insulin release: Rat islets were isolated from Sprague-Dawley rats as described in example 1 and treated with either vehicle or specified peptide (10 nM) for 2 hrs. Insulin concentration in the medium was measured with the Linco rat insulin RIA kit. Glucose concentration in the medium was 8 mM. The data are expressed as % of [insulin] in 8 mM glucose alone.

[6] = cAMP SPA, CHO cells transfected with PACAP-R3, concentration at which 50% of maximum PACAP27 activity is achieved, NA = no detectable activities, read-out: R3 EC50

Compound	EC50 [1, 6]	Plasma Insulin (% of Basal) ([2]; 1 nmole/kg peptide i.v.)	EC50 ([3]; cAMP SPA, read-out: R2 EC50)	R3 Selectivity [1]	Plasma Insulin (% of Basal) ([2]; 0.1 nmol/kg peptide i.v.)	elevation of plasma glucose 30 minutes after IPGTT [4]	Plasma Glucose (% of Basal) s.c. [4]	Islet Insulin Release (% of Basal) [5]	Plasma Glucose (% of Basal) i.v. [4]	EC50 ([3]; R2 EC50, cAMP SPA)	EC50 [1]	disposal of blood glucose ([4]; peptide i.v. followed by glucose load i.p., FIG. 5)	release of insulin from isolated rat islets ([5]; 0.1-100 nM, 3 or 8 mM glucose, FIGS. 4A-4B)
CC[C@H](C)[C@H](NC(=O)[C@H](CO)NC(=O)[C@H](CCC(N)=O)NC(=O)[C@H](CC(C)C)NC(=O)[C@H](Cc1ccc(O)cc1)NC(=O)[C@H](CCCCN)NC(=O)[C@H](CCCCN)NC(=O)[C@@H](NC(=O)[C@H](C)NC(=O)[C@@H](NC(=O)[C@H](CCC(N)=O)NC(=O)[C@H](CCCCN)NC(=O)[C@H](CCCNC(=N)N)NC(=O)[C@H](CC(C)C)NC(=O)[C@H](CCCNC(=N)N)NC(=O)[C@@H](NC(=O)[C@H](Cc1ccc(O)cc1)NC(=O)[C@H](CC(N)=O)NC(=O)[C@H](CC(=O)O)NC(=O)[C@@H](NC(=O)[C@H](Cc1ccccc1)NC(=O)[C@@H](NC(=O)[C@H](C)NC(=O)[C@H](CC(=O)O)NC(=O)[C@H](CO)NC(=O)[C@@H](N)Cc1c[nH]cn1)C(C)C)[C@@H](C)O)[C@@H](C)O)C(C)C)C(C)C)C(=O)N[C@@H](CCCCN)C(=O)N[C@@H](CCCCN)C(=O)N[C@@H](CCCCN)C(=O)N[C@@H](CCCNC(=N)N)C(=O)O [Peptide R3P80]	0.44 nM	360%											
H-HSDAVFTDNYTRLRKQMAAKKYLNSIKNKRY [Peptide R3P55]	0.17 nM		50 nM	280	208%								
HSDAVFTDNYTRLRKQLAAKKYLNDIKK-NH2 [Peptide R3P13]	5 nM		163 nM	33		significantly reduced							
HSDAVFTDNYTRLRKQLAAKKYLNDIKKGGT [Peptide R3P12]	0.5 nM	302%	> 100 nM	>200		significantly reduced	76%	324%					
HSDAVFTDNYTRLRKQLAAKKYLNDIKKKRY [Peptide R3P36]	0.4 nM	255%	> 90 nM	>200			78%		73%				
HSDAVFTDNYTRLRKQMAAKKYLNSIKK [Peptide R3P51]	0.26 nM		23 nM	90	259%								
HSDAVFTDNYTRLRKQMAVKKYLNSIKKGGT [Peptide R3P9]	2 nM		40 nM	20				221%					
HSDAVFTDNYTRLRKQVAAKKYLQSIKK [Peptide R3P60]	1 nM		120 nM	120	283%								
HSDAVFTDNYTRLRKQVAAKKYLQSIKKKR [Peptide R3P77]	0.4 nM	388%	200 nM	500									
HSDAVFTDNYTRLRKQVAAKKYLQSIKNKRY [Peptide R3P66]	0.4 nM		100 nM	250	388%		82%	184%					
HSDAVFTDNYTRLRKQVAVKKYLQSIKKK [Peptide R3P81]	0.5 nM	302%	50 nM	100									
HSDAVFTENYTKLRKQLAAKKYLNDLKKGGT [Peptide R3P3]		361%		130		significantly reduced	72%	275%	77%	100 nM	0.75 nM	markedly accelerated the disposal of blood glucose	significantly enhances the release of insulin
HSDAVFTENYTKLRKQLAAKKYLNDLLNGGT [Peptide R3P10]	11 nM		3 nM	0.3				174%					
PACAP 27: 27-amino acid form of pituitary adenylate cyclase activating peptide with an amidated carboxyl terminus [reference compound]		320%						186%					
